The values below come from ChEMBL document CHEMBL1221387, “Prenylflavonoids from Glycyrrhiza uralensis and their protein tyrosine phosphatase-1B inhibitory activities” (Bioorg Med Chem Lett, 2010).

Calls of active or inactive are those of the source. The calls are words filed in the database; no cut-off is given here.

The target of this assay is T1, Tyrosine-protein phosphatase non-receptor type 1 (Homo sapiens) (UniProt P18031).
T1 sequence (whole entry): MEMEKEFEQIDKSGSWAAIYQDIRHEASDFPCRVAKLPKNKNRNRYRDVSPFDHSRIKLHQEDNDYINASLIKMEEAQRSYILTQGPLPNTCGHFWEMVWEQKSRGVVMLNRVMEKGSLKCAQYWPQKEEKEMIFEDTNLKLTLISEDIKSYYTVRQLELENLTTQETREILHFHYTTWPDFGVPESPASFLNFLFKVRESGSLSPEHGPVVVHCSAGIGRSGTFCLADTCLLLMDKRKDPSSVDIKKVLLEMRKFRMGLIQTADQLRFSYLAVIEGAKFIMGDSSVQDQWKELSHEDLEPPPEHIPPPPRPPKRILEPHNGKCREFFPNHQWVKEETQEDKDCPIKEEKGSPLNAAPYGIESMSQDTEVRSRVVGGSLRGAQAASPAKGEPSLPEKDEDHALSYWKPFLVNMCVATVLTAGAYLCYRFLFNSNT
Briefly: Mixed type inhibition of human recombinant PTP1B at 30 uM by Lineweaver-Burke plot analysis.

`COc1cc(O)cc2occ(-c3cc(O)c(O)c(CC=C(C)C)c3)c(=O)c12`: the inhibition entry is “Active”.
